Data taken from ChEMBL document CHEMBL1201862, “PubChem BioAssay data set” (2004).
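Each compound was tested at five concentrations against cells in 96-well plates for 48 hours. The concentration for 50% growth inhibition is given as GI50.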 Active and inactive are the calls of the source. Rule as the data show it: active = GI50 up to about 1.1 µM and inactive = higher.

Experiments:
Experiment in all cases: NCI-60 cell line screen, 48 h
DLD-1 = tested on: DLD-1
DMS-114 = tested on: DMS-114
HOP-18 = tested on: HOP-18
M19-MEL = tested on: M19-MEL
RXF 631 = tested on: RXF 631
SNB-78 = tested on: SNB-78
XF498 = tested on: XF498

| Compound | GI50 (DLD-1) | GI50 (DMS-114) | GI50 (HOP-18) | GI50 (M19-MEL) | GI50 (RXF 631) | GI50 (SNB-78) | GI50 (XF498) |
| --- | --- | --- | --- | --- | --- | --- | --- |
| Cn1c(=O)nc2n(-c3ccc(Br)cc3)c3ccccc3nc-2c1=O | 4.05 µM (inactive) | 2 µM (inactive) | 5.6 µM (inactive) | 1.49 µM (inactive) | 4.11 µM (inactive) | 14 µM (inactive) | 12.1 µM (inactive) |
| C=C1CC(OC)(C(O)C(=O)N[C@H]2OCO[C@H]3C2O[C@H](C[C@H](O)COC)C(C)(C)C3OC)O[C@H](C)[C@@H]1C (stereo partly drawn) | < 0.00773 µM (active) | < 0.00773 µM (active) | < 0.00773 µM (active) | < 0.00773 µM (active) |  | < 0.00773 µM (active) | < 0.00773 µM (active) |
| Cc1nc(Nc2ccccc2)sc1C(=O)NNC(N)=O | > 100 µM (inactive) | 84.5 µM (inactive) | > 100 µM (inactive) | > 100 µM (inactive) |  | > 100 µM (inactive) | > 100 µM (inactive) |
| CSCC[C@@H](NC(=O)[C@H](CC(C)C)NC(=O)C(Cc1cnc[nH]1)NC(=O)CNC(=O)[C@@H](NC(=O)[C@H](C)NC(=O)[C@H](Cc1c[nH]c2ccccc12)NC(=O)[C@H](CCC(N)=O)NC(=O)[C@@H](N)CC(N)=O)C(C)C)C(N)=O (stereo partly drawn) | > 100 µM (inactive) | > 100 µM (inactive) | > 100 µM (inactive) | > 100 µM (inactive) |  | > 100 µM (inactive) | > 100 µM (inactive) |
| O=C1/C(=C/c2ccccc2)CN(C(=O)Oc2ccc(Cl)cc2)C/C1=C\c1ccccc1 | 1.11 µM (active) | 1.79 µM (inactive) | 13.1 µM (inactive) | 1.12 µM (active) |  | 2.96 µM (inactive) | 2.29 µM (inactive) |
| O=C1C(c2ccccc2)=[N+]([O-])c2cc([N+](=O)[O-])c(/C(Cl)=C/c3ccccc3)cc21 | 14.2 µM (inactive) | 8.97 µM (inactive) | 24.1 µM (inactive) | 15.3 µM (inactive) | 6.7 µM (inactive) | 29.4 µM (inactive) |  |
| Cc1cc(NS(=O)(=O)c2ccc(NC(=O)c3cccc4cc5ccccc5nc34)cc2)no1 | 19.9 µM (inactive) | 18.3 µM (inactive) |  | 16.6 µM (inactive) | 17.7 µM (inactive) | 29.9 µM (inactive) | 17 µM (inactive) |
| CCC(COC(=O)CC[C@@H](NC(=O)C(C)NC(=O)C(C)OC1C(O)C(CO)OC(OCc2ccccc2)C1NC(C)=O)C(N)=O)NC1c2ccccc2Nc2cccc([N+](=O)[O-])c21 (stereo partly drawn) | > 100 µM (inactive) | > 100 µM (inactive) | 69.2 µM (inactive) | > 100 µM (inactive) |  | > 100 µM (inactive) | > 100 µM (inactive) |
| CCCCC#C[I+]c1ccccc1 | 19.5 µM (inactive) |  | 14.5 µM (inactive) | 15.7 µM (inactive) | 9.71 µM (inactive) | 21.8 µM (inactive) | 15.3 µM (inactive) |
| CC1=C(O)C(=O)[C@@H]2O[C@@H]2C1=O | 7.28 µM (inactive) | 10.3 µM (inactive) | 12.5 µM (inactive) | 11.2 µM (inactive) |  | 15.6 µM (inactive) | 10.4 µM (inactive) |
| COc1cc2c(cc1OC)C(Cl)C(c1ccc(Cl)cc1)=C2Cl (stereo not drawn) | 16.3 µM (inactive) | 11.9 µM (inactive) | 15.9 µM (inactive) | 17.1 µM (inactive) | 21.3 µM (inactive) | 13 µM (inactive) | 3.45 µM (inactive) |
